What all share (assay): MIC determination in Muller Hinton Agar (CLSI agar dilution)
Holding throughout (type): cell-based
For orientation: Agar dilution tests growth on a series of plates holding different concentrations.

Assay [1] relates to K. pneumoniae ATCC 700603. Particulars: Klebsiella pneumoniae, ATCC700603. The protocol: (§1) The antibacterial activity of combinations according to the invention against resistant bacterial strains was investigated. Minimum Inhibitory Concentration (MIC) determination for the combinations according to invention was carried out in Muller Hinton Agar (MHA) (BD, USA) according to Clinical and Laboratory Standards Institute (CLSI) recommendations, (Clinical and Laboratory Standards Institute (CLSI), Performance Standards for Antimicrobial Susceptibility Testing, 20th Informational Supplement, M 100-S20, Volume 30, No. 1, 2010). In short, the test strains were adjusted to deliver about 10^4 CFU per spot with a multipoint inoculator (Applied Quality Services, UK). The plates were pored with MHA containing doubling concentration range of the test combinations according to invention. The plates were inoculated and were incubated at 35° C. for 18 hours.

Another assay concerns E. cloacae J137. The conditions noted are these: Enterobacter cloacae. The protocol: as §1
Another assay concerns K. pneumoniae J125. Particulars: Klebsiella pneumoniae. The protocol:
as §1

A further assay relates to K. pneumoniae H521. The conditions noted are these: Klebsiella pneumoniae. The procedure: as §1
The test system of a further assay is K. pneumoniae J102. Particulars: Klebsiella pneumoniae. The protocol:
as §1

In the next assay the test system is E. coli NCTC 13352. Particulars: Escherichia coli, NCTC13352. The protocol: as §1
Another assay deals with P. aeruginosa 2779. The conditions noted are these: Pseudomonas aeruginosa. The procedure: as §1
The test system of another assay is E. coli S206. Particulars: Escherichia coli. The protocol:
as §1

The subject of a further assay is E. coli M50. The conditions noted are these: Escherichia coli. The protocol:
as §1

In a further assay the test system is P. aeruginosa 1405. Particulars: Pseudomonas aeruginosa; P. aeruginosa 1405, Derepressed AmpC; agent alone. The procedure:
as §1

A further assay has as its system Citrobacter sp S123A. The procedure:
as §1

The structures appear in SMILES notation. Where two headings read alike, the source gives them in different places.

The term MIC denotes the least concentration at which growth counts as inhibited.

For the molecule `Cn1c(N)c(NC(=O)NCCN)c[n+]1CC1=C(C(=O)O)N2C(=O)[C@@H](NC(=O)/C(=N\OC(C)(C)C(=O)[O-])c3nsc(N)n3)[C@H]2SC1` [Ceftolozane], the MIC in assay [1] was 4 µg/mL; in the assay with E. cloacae J137 (J137), more than 32 µg/mL; with K. pneumoniae J125 (J125) it was 32 µg/mL; in the assay with K. pneumoniae H521 (H521) it was more than 32 µg/mL; in the assay with K. pneumoniae J102 (J102), more than 32 µg/mL; in the assay on E. coli NCTC 13352 it was more than 32 µg/mL. For the same molecule, the MIC was 4 µg/mL in the assay on P. aeruginosa 2779 (2779); more than 32 µg/mL with E. coli S206 (S206); more than 32 µg/mL with E. coli M50 (M50); 8 µg/mL in the assay on P. aeruginosa 1405; more than 32 µg/mL in the assay with Citrobacter sp S123A.

Turning to `C[C@@H](O)[C@H]1C(=O)N2C(C(=O)O)=C(SCCN=CN)C[C@H]12` [Imipenem], the MIC is 0.5 µg/mL in assay [1] (K. pneumoniae ATCC 700603, SHV-18, agent alone, read-out: MIC); 1 µg/mL in the assay on E. cloacae J137 (E. cloacae J137, P99, agent alone, read-out: MIC); 8 µg/mL with K. pneumoniae J125 (K. pneumoniae J125, KPC3, SHV, TEM, agent alone, read-out: MIC); 32 µg/mL with K. pneumoniae H521 (K. pneumoniae H521, KPC, SHV, TEM, agent alone, read-out: MIC); 4 µg/mL with K. pneumoniae J102 (K. pneumoniae J102, OMP, SHV, TEM, agent alone, read-out: MIC); 0.25 µg/mL in the assay with E. coli NCTC 13352 (E. coli NCTC 13352, TEM-10, agent alone, read-out: MIC). For the same molecule, the MIC in the assay with P. aeruginosa 2779 (P. aeruginosa 2779, AmpC, agent alone, read-out: MIC) is 2 µg/mL; in the assay with E. coli S206 (E. coli S206, Class C, agent alone, read-out: MIC), 0.25 µg/mL; in the assay with E. coli M50 (E. coli M50, CMY-2, agent alone, read-out: MIC) it was 0.5 µg/mL; with P. aeruginosa 1405, 16 µg/mL; in the assay with Citrobacter sp S123A, 4 µg/mL.

Source of the values: patent publication US20170027917A1, “PHARMACEUTICAL COMPOSITIONS COMPRISING ANTIBACTERIAL AGENTS” (priority 2014, published 2017).
